Where two headings read alike, the source gives them in different places.
Columns and labels:
VEGFR [1] = biological target: VEGFR (Homo sapiens, UniProt P35916); test: ADP-Glo kinase inhibition assay, VEGFR; assay type: biochemical; settings: ADP-Glo
Syk = Syk (Homo sapiens, UniProt P43405); test: ADP-Glo kinase inhibition assay, Syk
HGFR = HGFR (Homo sapiens, UniProt P08581); test: ADP-Glo kinase inhibition assay, HGFR; assay type: biochemical; settings: for IC50: ADP-Glo
EGFR = EGFR (Homo sapiens, UniProt P00533); test: ADP-Glo kinase inhibition assay, EGFR; assay type: biochemical; settings: for IC50: ADP-Glo
[2] = test system: Band 3 tyrosine phosphorylation; test: Inhibition of Band 3 tyrosine phosphorylation (cellular potency); assay type: cell-based, human
LogP = assay type: physicochemical
From the text: The compound can have a CLogP value between about 2.0 and about 5.0 (e.g., between 2.0 and about 5.0, about 2.0 and 5.0, or 2.0 and 5.0). In certain embodiments, e.g., compound S1213, the compound has a CLogP value of between about 1.0 and about 2.0 (e.g., between 1.0 and about 2.0, about 1.0 and 2.0, or 1.0 and 2.0). The term “cLogP” refers to a calculated partition coefficient which in the physical sciences, is the ratio of concentrations of a compound in a mixture of the two immiscible phases at equilibrium. These coefficients are a measure of the difference in solubility of the compound in these two phases. In general, this is a measure of hydrophobicity of the compound as one phase is aqueous (traditionally water) and the other is hydrophobic (traditionally octanol). Higher values indicate greater partitioning of the compound into the hydrophobic phase and support increased hydrophobicity.

[3] = Absolute oral bioavailability; settings: in vivo, read-out: Absolute oral bioavailability F
IGF1R = IGF1R (Homo sapiens, UniProt P08069); test: ADP-Glo kinase inhibition assay, IGF1R
FGFR3 = FGFR3 (Homo sapiens, UniProt P22607); test: ADP-Glo kinase inhibition assay, FGFR3
VEGFR [4] = test: ADP-Glo kinase inhibition assay, VEGFR; assay type: biochemical; settings: selectivity ratio
[5] = Homo sapiens, read-out: Inhibition of Band 3 Tyrosine Phosphorylation EC50, pTyr
[6] = Homo sapiens, read-out: Inhibition of Band 3 Tyrosine Phosphorylation EC50, pTyr8
[7] = Homo sapiens, read-out: Inhibition of Band 3 Tyrosine Phosphorylation EC50, pTyr359
[8] = pTyr, read-out: Inhibition of Band 3 Tyrosine Phosphorylation EC50, pTyr

Chain of IGF1R (P08069 31-1367): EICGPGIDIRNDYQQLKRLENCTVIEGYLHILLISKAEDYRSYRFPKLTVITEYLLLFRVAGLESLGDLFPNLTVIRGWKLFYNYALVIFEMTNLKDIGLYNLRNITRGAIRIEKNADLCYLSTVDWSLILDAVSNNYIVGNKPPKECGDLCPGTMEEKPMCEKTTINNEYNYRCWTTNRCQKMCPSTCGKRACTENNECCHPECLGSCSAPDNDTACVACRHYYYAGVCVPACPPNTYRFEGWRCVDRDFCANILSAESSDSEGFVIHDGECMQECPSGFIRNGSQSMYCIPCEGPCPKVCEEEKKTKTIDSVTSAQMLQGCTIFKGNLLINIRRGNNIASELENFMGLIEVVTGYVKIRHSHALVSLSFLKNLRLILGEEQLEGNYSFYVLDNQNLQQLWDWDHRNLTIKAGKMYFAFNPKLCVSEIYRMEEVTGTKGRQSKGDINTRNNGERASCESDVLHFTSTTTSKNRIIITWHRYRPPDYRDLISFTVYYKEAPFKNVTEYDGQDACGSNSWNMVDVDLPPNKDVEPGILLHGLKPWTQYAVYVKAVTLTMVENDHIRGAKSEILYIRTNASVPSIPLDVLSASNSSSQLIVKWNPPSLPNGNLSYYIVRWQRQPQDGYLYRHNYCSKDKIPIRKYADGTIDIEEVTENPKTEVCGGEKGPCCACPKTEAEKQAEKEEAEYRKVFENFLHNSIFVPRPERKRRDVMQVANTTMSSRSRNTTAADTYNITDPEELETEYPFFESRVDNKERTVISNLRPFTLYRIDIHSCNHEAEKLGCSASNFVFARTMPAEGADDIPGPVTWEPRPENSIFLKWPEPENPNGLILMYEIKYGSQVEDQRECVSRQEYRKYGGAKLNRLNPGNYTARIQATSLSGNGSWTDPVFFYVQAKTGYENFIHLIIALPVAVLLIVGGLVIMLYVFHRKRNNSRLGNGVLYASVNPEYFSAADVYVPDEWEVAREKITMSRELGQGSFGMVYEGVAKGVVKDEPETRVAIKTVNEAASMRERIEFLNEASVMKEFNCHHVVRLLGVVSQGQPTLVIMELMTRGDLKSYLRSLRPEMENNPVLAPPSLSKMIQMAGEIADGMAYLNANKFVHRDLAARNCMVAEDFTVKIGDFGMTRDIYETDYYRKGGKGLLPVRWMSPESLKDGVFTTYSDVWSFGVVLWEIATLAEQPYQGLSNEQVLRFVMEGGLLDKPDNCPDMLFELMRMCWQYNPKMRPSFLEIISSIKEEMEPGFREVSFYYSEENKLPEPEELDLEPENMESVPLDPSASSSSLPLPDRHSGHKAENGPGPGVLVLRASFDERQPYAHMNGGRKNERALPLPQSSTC
Chain of VEGFR (Homo sapiens, UniProt P35916) (P35916 whole entry): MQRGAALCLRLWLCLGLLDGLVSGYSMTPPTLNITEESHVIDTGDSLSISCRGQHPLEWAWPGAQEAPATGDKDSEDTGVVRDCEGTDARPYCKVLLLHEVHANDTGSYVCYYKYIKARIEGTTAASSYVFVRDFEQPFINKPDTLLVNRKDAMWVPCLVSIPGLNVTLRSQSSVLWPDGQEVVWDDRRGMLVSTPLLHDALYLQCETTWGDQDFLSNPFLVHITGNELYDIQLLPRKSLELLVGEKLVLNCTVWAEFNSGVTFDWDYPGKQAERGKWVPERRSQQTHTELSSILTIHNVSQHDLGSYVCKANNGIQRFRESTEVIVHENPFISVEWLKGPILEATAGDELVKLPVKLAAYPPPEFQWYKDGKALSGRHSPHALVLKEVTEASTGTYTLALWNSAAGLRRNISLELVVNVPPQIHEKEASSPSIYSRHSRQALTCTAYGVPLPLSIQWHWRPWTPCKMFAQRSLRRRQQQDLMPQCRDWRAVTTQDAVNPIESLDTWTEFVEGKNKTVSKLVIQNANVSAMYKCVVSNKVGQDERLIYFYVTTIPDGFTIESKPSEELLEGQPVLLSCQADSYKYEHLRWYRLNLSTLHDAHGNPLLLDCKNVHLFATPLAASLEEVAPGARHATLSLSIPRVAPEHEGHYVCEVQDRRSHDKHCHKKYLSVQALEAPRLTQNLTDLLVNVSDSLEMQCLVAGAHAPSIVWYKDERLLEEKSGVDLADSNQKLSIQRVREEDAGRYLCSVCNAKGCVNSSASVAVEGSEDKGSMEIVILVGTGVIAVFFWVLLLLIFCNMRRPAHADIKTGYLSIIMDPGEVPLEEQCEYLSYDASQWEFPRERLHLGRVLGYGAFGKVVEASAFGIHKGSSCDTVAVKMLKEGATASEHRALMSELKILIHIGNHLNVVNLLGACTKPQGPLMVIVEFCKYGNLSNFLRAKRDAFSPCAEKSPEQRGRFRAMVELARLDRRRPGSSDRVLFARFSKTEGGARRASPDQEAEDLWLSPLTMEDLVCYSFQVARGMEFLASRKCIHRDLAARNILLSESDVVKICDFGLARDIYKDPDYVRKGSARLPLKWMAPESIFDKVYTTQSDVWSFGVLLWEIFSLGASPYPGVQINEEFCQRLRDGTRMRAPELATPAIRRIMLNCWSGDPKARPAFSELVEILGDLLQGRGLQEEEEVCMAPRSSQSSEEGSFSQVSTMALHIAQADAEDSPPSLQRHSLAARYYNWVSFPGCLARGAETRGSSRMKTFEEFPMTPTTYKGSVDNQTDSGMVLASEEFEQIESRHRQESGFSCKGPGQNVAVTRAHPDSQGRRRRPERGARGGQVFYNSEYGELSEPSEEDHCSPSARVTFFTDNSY
Chain of FGFR3 (P22607 23-806): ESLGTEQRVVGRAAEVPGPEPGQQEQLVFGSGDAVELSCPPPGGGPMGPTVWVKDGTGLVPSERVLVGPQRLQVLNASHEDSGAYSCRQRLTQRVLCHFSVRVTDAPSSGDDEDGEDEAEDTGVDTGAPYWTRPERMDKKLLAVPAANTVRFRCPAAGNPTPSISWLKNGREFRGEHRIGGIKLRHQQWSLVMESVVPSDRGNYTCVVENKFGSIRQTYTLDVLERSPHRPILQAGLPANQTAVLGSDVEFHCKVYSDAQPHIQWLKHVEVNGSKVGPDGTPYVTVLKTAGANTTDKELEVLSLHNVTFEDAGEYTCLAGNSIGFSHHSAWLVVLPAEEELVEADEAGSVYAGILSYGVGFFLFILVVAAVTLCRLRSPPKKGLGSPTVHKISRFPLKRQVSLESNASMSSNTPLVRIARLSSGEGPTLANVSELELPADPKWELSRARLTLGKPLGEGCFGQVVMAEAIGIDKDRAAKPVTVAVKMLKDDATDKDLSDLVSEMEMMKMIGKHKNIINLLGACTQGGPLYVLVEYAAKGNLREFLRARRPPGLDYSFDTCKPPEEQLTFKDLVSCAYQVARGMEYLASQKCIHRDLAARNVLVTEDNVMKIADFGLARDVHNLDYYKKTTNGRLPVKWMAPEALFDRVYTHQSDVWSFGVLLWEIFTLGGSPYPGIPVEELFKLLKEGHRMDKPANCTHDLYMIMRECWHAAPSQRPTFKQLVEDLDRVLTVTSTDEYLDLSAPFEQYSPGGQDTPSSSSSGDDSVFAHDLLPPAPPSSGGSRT
Chain of HGFR (P08581 25-1390): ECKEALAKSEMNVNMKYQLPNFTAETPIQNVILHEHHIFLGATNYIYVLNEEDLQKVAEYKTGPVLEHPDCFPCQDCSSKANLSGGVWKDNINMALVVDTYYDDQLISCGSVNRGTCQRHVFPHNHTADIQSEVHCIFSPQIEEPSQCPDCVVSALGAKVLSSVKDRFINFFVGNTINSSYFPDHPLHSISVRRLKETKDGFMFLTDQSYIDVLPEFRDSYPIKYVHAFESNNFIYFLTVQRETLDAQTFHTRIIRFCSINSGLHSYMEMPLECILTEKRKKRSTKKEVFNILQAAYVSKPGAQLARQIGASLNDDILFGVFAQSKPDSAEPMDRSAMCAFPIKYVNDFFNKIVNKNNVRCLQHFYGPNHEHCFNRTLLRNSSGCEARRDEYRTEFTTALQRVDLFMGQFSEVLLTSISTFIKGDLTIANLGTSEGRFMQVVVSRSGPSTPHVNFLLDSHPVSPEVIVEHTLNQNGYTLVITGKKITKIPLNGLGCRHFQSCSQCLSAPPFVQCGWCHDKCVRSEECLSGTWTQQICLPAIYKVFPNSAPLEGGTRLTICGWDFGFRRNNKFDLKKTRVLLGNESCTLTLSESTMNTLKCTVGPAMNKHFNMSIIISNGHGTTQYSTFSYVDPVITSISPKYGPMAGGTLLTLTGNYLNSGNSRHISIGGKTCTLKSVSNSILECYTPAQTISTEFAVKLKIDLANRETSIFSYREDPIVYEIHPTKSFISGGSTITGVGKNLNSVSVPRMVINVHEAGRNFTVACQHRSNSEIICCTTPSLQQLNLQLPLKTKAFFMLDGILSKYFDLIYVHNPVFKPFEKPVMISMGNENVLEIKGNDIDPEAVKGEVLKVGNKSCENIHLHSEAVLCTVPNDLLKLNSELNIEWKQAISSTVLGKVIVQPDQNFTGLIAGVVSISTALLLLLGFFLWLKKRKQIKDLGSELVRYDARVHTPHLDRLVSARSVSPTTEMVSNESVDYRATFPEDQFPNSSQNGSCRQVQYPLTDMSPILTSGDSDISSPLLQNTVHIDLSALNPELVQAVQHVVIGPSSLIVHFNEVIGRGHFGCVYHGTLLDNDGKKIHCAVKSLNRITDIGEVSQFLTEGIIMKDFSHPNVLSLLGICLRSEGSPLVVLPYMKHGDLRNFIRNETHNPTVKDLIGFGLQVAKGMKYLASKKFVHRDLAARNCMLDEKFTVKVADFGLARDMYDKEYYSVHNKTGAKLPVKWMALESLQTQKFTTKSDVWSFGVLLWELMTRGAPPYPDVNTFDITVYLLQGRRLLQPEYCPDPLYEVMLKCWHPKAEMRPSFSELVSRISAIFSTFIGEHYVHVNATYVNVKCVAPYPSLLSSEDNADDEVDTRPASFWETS

Row | IC50 (VEGFR [1]) | IC50 (HGFR) | IC50 (EGFR) | IC50 (Syk) | IC50 (IGF1R) | IC50 (FGFR3) | SMILES | also measured
1 | 75 nM | > 40000 nM | 140 nM | 2.2 nM | 900 nM | – | COc1ccc(Nc2nc(-c3ccc4c(CN5CC(O)C5)c[nH]c4c3)cnc2C(N)=O)cc1OC [Compound S1115, 3-((3,4,-methoxyphenyl)amino)-5-(3-((3-hydroxyazetidin-1-yl)methyl)-1H-indol-6-yl)pyrazine-2-carboxamide] | EC50 [2, 5]: 226 nM; EC50 [2, 6]: 262 nM; EC50 [2, 7]: 1590 nM; LogP (LogP): 1.42; bioavailability [3]: 2%
2 | 441 nM | – | – | – | – | 246 nM | CN1CCN(c2ccc(C(=O)Nc3n[nH]c4ccc(Cc5cc(F)cc(F)c5)cc34)c(NC3CCOCC3)c2)CC1 [Entrectinib] | –
3 | – | – | – | 5 to 46 nM | – | – | N#CCC1CCN(c2nc(Nc3ccc(N4CCC(O)CC4)cc3)c3c(=O)[nH]ncc3n2)CC1 [Gusacitinib] | –
4 | 778 nM | > 100000 nM | 4270 nM | – | 2430 nM | 69400 nM | Nc1cncc(-c2cn3ccnc3c(Nc3ccc(N4CCN(C5COC5)CC4)cc3)n2)n1 [Lanraplenib] | EC50 [2, 5]: 3000 nM
5 | – | – | – | 530 nM | – | – | NC(=O)c1ncc(-c2ccc3c(CN4CC(N)C4)c[nH]c3c2)nc1Nc1cccc(-n2nccn2)c1 [Compound S1214] | –
6 | 335 nM | 1030 nM | – | 37100 nM | 1010 nM | 1810 nM | CCc1cc2c(cc1N1CCC(N3CCOCC3)CC1)C(C)(C)c1[nH]c3cc(C#N)ccc3c1C2=O [Alectinib] | –
7 | 19600 nM | > 100000 nM | 6370 nM | 23600 nM | > 100000 nM | 1980 nM | O=C(Nc1cnn2ccc(N3CCC[C@@H]3c3cc(F)ccc3F)nc12)N1CC[C@H](O)C1 [Larotrectinib] | –
8 | 244 nM | – | – | – | 813 nM | 9900 nM | c1cn2cc(-c3ccc4cn[nH]c4c3)nc(Nc3ccc(N4CCOCC4)cc3)c2n1 [Entospletinib] | EC50 [2, 8]: 3000 nM

The next lines start with the compound.

Row | SMILES | IC50 (VEGFR [1]) | IC50 (HGFR) | IC50 (EGFR) | IC50 (Syk) | IC50 (IGF1R) | IC50 (FGFR3) | also measured
9 | COc1ccc(-c2cc3nccn3c(Nc3ncccc3C(N)=O)n2)cc1OC [Syk IV] | 91.2 nM | – | – | – | – | – | –
10 | Cc1cc(Nc2nc(N[C@@H]3CCOC[C@@H]3N)nnc2C(N)=O)cc2cn(C(C)(C)C)nc12 [TAS05567] | – | – | – | – | – | – | IC50 (Syk; read-out: IC50 Syk, ADP-Glo): 0.37 nM
11 | Cc1cc(Nc2nccc(C)n2)cc(-c2cnc([C@@]3(O)CC[C@H](C(=O)O)C(C)(C)C3)s2)c1 [Syk-IN-3] | – | – | – | – | – | – | IC50 (Syk; read-out: IC50 Syk, ADP-Glo): 1 nM
12 | CCS(=O)(=O)N1CCN(c2ccc(Nc3ncc(C(N)=O)c(NC4CC4)n3)cc2)CC1 [Cerdulatinib] | – | – | – | – | – | – | IC50 (Syk; read-out: IC50 Syk, ADP-Glo): 32 nM
13 | Cn1cc(-c2cc3c(N4CCN(c5ncc([C@@](C)(N)c6ccc(F)cc6)cn5)CC4)ncnn3c2)cn1 [Avapritinib] | 2580 nM | 25000 nM | 8730 nM | 280 nM | > 100000 nM | 1020 nM | –
14 | Oc1cc(O)cc(/C=C/c2ccc(O)c(O)c2)c1 [Piceatannal] | 5000 nM | 35000 nM | 17600 nM | – | – | – | IC50 (FGFR3; read-out: IC50 FGFR3, ADP-Glo): 24700 nM; IC50 (IGF1R; read-out: IC50 IGF1R, ADP-Glo): 21500 nM
15 | COc1ccc(Nc2nc(-c3ccc4c(CN5CC(N)C5)c[nH]c4c3)cnc2C(N)=O)cc1OC [Compound S1213] | > 2000 nM | > 20000 nM | 25000 nM | 25 nM | > 20000 nM | > 3000 nM | EC50 [2, 5]: 1500 nM; LogP (LogP): 1.04; bioavailability [3]: 2%
16 | Cc1cc(Nc2ncnc3ccc(NC4=NC(C)(C)CO4)cc23)ccc1Oc1ccn2ncnc2c1 [Tucatinib] | 1960 nM | 11100 nM | 38.8 nM | 4930 nM | > 100000 nM | 66500 nM | –
17 | Cc1nn(-c2ccnc(Nc3ccc(-c4csc5c(=O)cc(N6CCOCC6)oc45)cc3)n2)cc1CN1CCC1 [SRX3207] | – | – | – | – | – | – | IC50 (Syk; read-out: IC50 Syk, ADP-Glo): 10.7 nM
18 | NCCNc1ncc(C(N)=O)c(Nc2cccc(C(F)(F)F)c2)n1 [Syk II] | 4210 nM | 69400 nM | 27000 nM | – | – | – | IC50 (Syk; read-out: IC50 Syk, ADP-Glo): 70.3 nM; IC50 (FGFR3; read-out: IC50 FGFR3, ADP-Glo): 36900 nM; IC50 (IGF1R; read-out: IC50 IGF1R, ADP-Glo): 13500 nM
19 | Cn1cc(-c2nc(N[C@@H]3CCCC[C@@H]3N)c(F)c3c2C(=O)NC3)cn1 [TAK-659] | 150 nM | 3160 nM | 27600 nM | – | – | – | IC50 (FGFR3; read-out: IC50 FGFR3, ADP-Glo): 19 nM
20 | COc1cc(Nc2ncc(F)c(Nc3ccc4c(n3)N(COP(=O)(O)O)C(=O)C(C)(C)O4)n2)cc(OC)c1OC [Fostamtinib] | 18.7 nM | 1570 nM | 342 nM | – | 638 nM | 91.4 nM | –
21 | COc1ccc(Nc2nc(-c3ccc4c(CN5CC(O)C5)cn(CO)c4c3)cn3ccnc23)cc1OC [Compound S970D] | 2100 nM | > 40000 nM | 650 nM | 80 nM | > 5000 nM | – | EC50 [2, 5]: 716 nM; EC50 [2, 6]: 572 nM; LogP (LogP): 2.28
22 | COc1ccc(Nc2nc(-c3ccc4c(CN5CC(C(=O)O)C5)c[nH]c4c3)cnc2C(N)=O)cc1OC [Compound S1219] | – | – | – | 50 nM | – | – | LogP (LogP): 1.54; bioavailability [3]: 1.1%
23 | CCn1c(=O)c(-c2cc(NC(=O)Nc3ccccc3)c(F)cc2Br)cc2cnc(NC)cc21 [Ripretinib] | 0.24 nM | 3020 nM | 9930 nM | 13200 nM | > 100000 nM | 84.4 nM | –
24 | NC(=O)c1nnc(N[C@@H]2CCCC[C@@H]2N)nc1Nc1cccc2cc[nH]c12 [Syk-IN-1] | – | – | – | – | – | – | IC50 (Syk; read-out: IC50 Syk, ADP-Glo): 31 nM
25 | COc1cc(Nc2ncc(F)c(Nc3ccc4c(n3)NC(=O)C(C)(C)O4)n2)cc(OC)c1OC [Compound R406] | – | – | – | – | – | – | EC50 [2, 8]: 5000 nM
26 | COc1ccc(Nc2nc(-c3ccc4c(CCCO)cn(C)c4c3)cnc2C(N)=O)cc1OC [Compound S2053] | > 10000 nM | – | 4300 nM | 147 nM | > 10000 nM | > 5000 nM | LogP (LogP): 2.63; bioavailability [3]: 8%
27 | COc1ccc(Nc2nc(-c3ccc4c(CCCN)cn(C)c4c3)cnc2C(N)=O)cc1OC [Compound S2054] | – | – | – | 680 nM | – | – | –
28 | NC(=O)c1cnc(N[C@@H]2CCCC[C@@H]2N)nc1Nc1cccc(-n2nccn2)c1 [PRT062067] | – | – | – | – | – | – | EC50 [2, 8]: 300 nM
29 | COc1ccc(Nc2nc(-c3ccc4c(CN5CC(O)C5)c[nH]c4c3)cn3ccnc23)cc1OC [Compound S970, 1-((6-(8-((3,4-dimethoxyphenyl)amino)imidazo[1,2-a]pyrazin-6-yl)-1H-indol-3-yl)methyl)azetidin-3-ol] | 4000 nM | – | 8000 nM | 177 nM | – | – | Ratio of IC50 SYK/Kinases: HGFR (HGFR; selectivity ratio): 220; Ratio of IC50 SYK/Kinases: EGFR (EGFR; selectivity ratio): 44; Ratio of IC50 SYK/Kinases: VEGFR3 (VEGFR [4]): 22; EC50 [2, 5]: 1500 nM; EC50 [2, 6]: 4400 nM; EC50 [2, 7]: 10000 nM; LogP (LogP): 2.29; Ratio of IC50 SYK/Kinases: SYK (Syk; selectivity ratio): 1; Ratio of IC50 SYK/Kinases: FGF3R (FGFR3; selectivity ratio): 55; Ratio of IC50 SYK/Kinases: IGF1R (IGF1R; selectivity ratio): 55

From US20250186432A1, “SPLEEN TYROSINE KINASE INHIBITOR, COMPOSITION, AND METHODS OF USE” (PURDUE RESEARCH FOUNDATION, priority 2022, published 2025)
